Data published in patent US20250213587A1, “ITK INHIBITORS FOR INCREASING TH1 CELL ACTIVITY” (Corvus Pharmaceuticals, Inc., priority 2022, published 2025).

Legend:
[1] = molecular target: T1, RLK (Homo sapiens, UniProt P42681); assay: Human kinome profiling at 1.0 μM, RLK; type: biochemical; settings: read-out: percent control, RLK
T1 construct: purchased Invitrogen PV5860

[2] = test system: ERK phosphorylation; assay: pERK flow cytometry after CD3/28 crosslinking; type: cell-based; settings: Homo sapiens, mean of three donors
Procedure: PBMCs were pelleted (400×g at 4° C. for 5 minutes) and resuspended in RPMI+10% heat-inactivated fetal bovine serum (FBS) at 14.3×10^6 cells/mL; 70 μL (1×10^6 cells) were plated in a 96 well U bottom plate and incubated at 37° C. for 1 hour. […] CD3-biotin and CD28-biotin were prepared together at 10 μg/mL each, which is 10× the final concentration; 10 μL antibodies were added to the cells and incubated at 37° C. for 15 minutes. Avidin was prepared at 500 μg/mL, which is 10× the final concentration; 10 μL avidin were added to the cells and incubated at 37° C. for 5 minutes to induce TCR crosslinking. A total volume of 100 μL cells were transferred to 200 μL warm 2.4% paraformaldehyde (PFA) in deep well blocks. Pipetting was performed using a liquidator 96 to add reagents to the entire plate with uniform timing. Cells were fixed with PFA at 37° C. for 10 minutes. Cells were pelleted (1000× g for 5 minutes), and the plate was aspirated leaving approximately 100 μL residual volume. The plate was then vigorously vortexed for 10 seconds, and 1 mL −20° C. methanol was added to each well. Cells were stored at […] for approximately 1 month. […] Inhibition was measured by construction of a concentration response curve of the Log base 10 transformed values of the molar concentration of inhibitor. […]

[3] = molecular target: T2, ITK (Homo sapiens, UniProt Q08881); assay: Human kinome profiling at 1.0 μM, ITK; type: biochemical; parameters: purchased Invitrogen
T2 sequence (Q08881 1-620): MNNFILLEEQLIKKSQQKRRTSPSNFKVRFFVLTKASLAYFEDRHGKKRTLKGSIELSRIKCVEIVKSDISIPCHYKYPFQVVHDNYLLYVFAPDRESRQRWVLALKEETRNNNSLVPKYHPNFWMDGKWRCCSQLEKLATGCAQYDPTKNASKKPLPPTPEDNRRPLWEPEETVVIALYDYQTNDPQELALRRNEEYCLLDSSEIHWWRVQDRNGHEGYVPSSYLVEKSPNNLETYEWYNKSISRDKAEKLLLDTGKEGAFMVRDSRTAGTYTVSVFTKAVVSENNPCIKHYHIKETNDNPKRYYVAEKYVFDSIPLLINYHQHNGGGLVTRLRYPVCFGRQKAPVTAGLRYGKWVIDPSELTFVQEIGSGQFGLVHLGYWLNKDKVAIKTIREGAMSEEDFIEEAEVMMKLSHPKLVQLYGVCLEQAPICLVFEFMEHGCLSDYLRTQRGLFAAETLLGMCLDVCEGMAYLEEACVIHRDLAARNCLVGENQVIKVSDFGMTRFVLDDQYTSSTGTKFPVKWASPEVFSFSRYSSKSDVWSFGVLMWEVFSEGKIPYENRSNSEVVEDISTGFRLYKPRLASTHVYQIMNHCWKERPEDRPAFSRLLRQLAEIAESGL

[4] = test system: ZAP-70 phosphorylation; assay: ZAP-70 phosphorylation in Jurkat cells; type: cell-based, human; settings: anti-CD3
Procedure: Jurkat human acute T cell leukemia cell line (ATCC, TIB-152) was cultured in RPMI 1640 medium supplemented with Penicillin-Streptomycin (Gibco) and 10% fetal bovine serum (FBS) at 37° C. and 5% CO2. […] The cell pellet was resuspended in NP40 lysis buffer (Invitrogen) containing protease and phosphatase inhibitors cocktail (Cell Signaling Technology), incubated for 30 minutes on ice, and centrifuged at 15, 000×g for 10 minutes. The lysate supernatant from each condition containing 50 μg of total protein was resolved on an 8% Bis-Tris gel (Invitrogen) under reducing condition and transferred onto a nitrocellulose membrane (Invitrogen) using an iBlot2 gel transfer device. Unless specified otherwise, all reagents described above were purchased from Thermo Fisher Scientific. Membranes were blocked for 1 hour at room temperature and incubated overnight at 4° C. with primary antibodies (1:1000 dilution) in Odyssey blocking buffer (LI-COR) with 0.2% Tween 20. Membranes were washed 4 times (5 min each) in Tris-buffered saline, 0.10% Tween 20 and incubated with IRDye 800CW Anti-Rabbit IgG and IRDye 700CW Anti-Mouse IgG (LI-COR) secondary antibodies (1:20,000 dilution) for 1 hour at room temperature. After washes, membranes were imaged in the LI-COR Odyssey® Fc Imaging System. […]

[5] = molecular target: ZAP-70 (Homo sapiens, UniProt P43403); assay: Human kinome profiling at 1.0 μM, ZAP-70; type: biochemical; settings: read-out: percent control, ZAP-70
ZAP-70, sequence (P43403 whole entry): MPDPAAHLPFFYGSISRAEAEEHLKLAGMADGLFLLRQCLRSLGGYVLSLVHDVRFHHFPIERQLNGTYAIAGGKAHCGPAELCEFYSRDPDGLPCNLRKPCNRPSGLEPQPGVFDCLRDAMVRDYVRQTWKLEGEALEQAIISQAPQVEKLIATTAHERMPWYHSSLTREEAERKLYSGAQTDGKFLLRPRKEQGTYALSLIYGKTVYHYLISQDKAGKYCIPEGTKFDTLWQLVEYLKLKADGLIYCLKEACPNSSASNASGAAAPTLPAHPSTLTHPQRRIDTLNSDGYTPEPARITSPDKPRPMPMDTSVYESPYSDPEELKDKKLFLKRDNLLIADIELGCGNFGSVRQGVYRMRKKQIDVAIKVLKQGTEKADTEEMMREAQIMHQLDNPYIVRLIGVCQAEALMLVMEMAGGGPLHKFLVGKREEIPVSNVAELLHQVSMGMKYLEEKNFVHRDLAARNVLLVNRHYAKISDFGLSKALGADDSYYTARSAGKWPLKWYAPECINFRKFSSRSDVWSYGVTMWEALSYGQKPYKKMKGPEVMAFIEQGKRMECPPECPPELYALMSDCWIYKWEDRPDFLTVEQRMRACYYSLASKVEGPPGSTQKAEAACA

T1 sequence (P42681 whole entry): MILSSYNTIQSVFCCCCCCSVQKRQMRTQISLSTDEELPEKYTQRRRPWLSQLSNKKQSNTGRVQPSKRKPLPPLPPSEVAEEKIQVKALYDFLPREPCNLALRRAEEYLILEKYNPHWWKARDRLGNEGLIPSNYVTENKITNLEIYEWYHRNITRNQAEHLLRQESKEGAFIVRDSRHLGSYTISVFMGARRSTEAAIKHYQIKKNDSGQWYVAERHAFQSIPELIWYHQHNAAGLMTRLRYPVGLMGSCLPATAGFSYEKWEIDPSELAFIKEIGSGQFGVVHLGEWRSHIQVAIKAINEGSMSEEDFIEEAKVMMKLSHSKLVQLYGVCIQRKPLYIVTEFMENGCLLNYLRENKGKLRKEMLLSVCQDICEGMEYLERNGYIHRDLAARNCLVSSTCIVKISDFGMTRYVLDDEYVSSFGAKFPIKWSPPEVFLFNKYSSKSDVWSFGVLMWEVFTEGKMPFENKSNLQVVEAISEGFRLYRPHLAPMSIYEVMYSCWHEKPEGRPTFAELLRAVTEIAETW

remaining activity at 1 µM [1]: 70%
IC50 [2]: 39 nM
inhibition at 1 µM [3]: > 95%
remaining activity at 1 µM [5]: 59%
Structure (SMILES): C=CC(=O)N1CCCN(C(=O)c2cc(Sc3cnc(NC(=O)C4CC4)s3)c(C)cc2OC)C[C@H]1C [CPI-818]
phosphorylation of ZAP-70 [4]: but not ZAP-70
